The values below are quoted from earlier work in US7947313B2, “Compositions for diabetes treatment and prophylaxis” (Ayurvedic-Life International, LLC, priority 2003, dated 2011).

The conditions of data set [1]: Fletcher et al. 1999.
The test system of a further data set is rat chorda tympani nerve. The conditions noted are these: stimuli such as glucose, sucrose, glycine and saccharine; Fletcher et al. 1999.

Turning to gurmarin, the effect in humans entry in data set [1] is “no apparent effect”. Further, the “response of the rat chorda tympani nerve to sweet taste stimuli” value in the data set on rat chorda tympani nerve is “suppressing the response”.
